A word on the pIC50: it is the negative decadic logarithm of the IC50, by convention in mol/L.

The structures appear in SMILES notation. pIC50: −log10 of the molar value. Where two headings read alike, the source gives them in different places.

The values below come from patent publication US8507464B2, “Phosphoramidate alkylator prodrugs” (Threshold Pharmaceuticals, Inc., priority 2005, dated 2013).

The subject of the assay is NCI-H460 cells. Put plainly: Antiproliferation assay (Alamar Blue), anoxia vs air. (Resazurin is reduced to fluorescent resorufin, in cell work by metabolically active cells.)
The mark [1] stands for this setting: Homo sapiens, NCI-H460, 2 h, read-out: IC50 H460 Air, air, 2 h exposure.
Setting [2] is: Homo sapiens, NCI-H460, 2 h, read-out: IC50 H460 Anoxia, anoxia, 2 h exposure.
The mark [3] stands for this setting: read-out: IC50 H460 Air, air, 2 h exposure.
Where [4] appears, read: read-out: IC50 H460 Anoxia, anoxia, 2 h exposure.

As for `Cn1c(COP(=O)(N2CC2)N2CC2)cnc1[N+](=O)[O-]` [Compound 28], the pIC50 reads like this: under setting [1], 4.70; under setting [2], 6.82.

For `Cn1c(COc2ccc(COP3(=O)N(CCCl)CCCN3CCCl)cc2F)cnc1[N+](=O)[O-]` [Compound 33], the pIC50 reads like this: under setting [1], 4.34; under setting [2], 5.10.

On to `C[C@H](CCl)NP(=O)(N[C@H](C)CCl)OCc1ccc([N+](=O)[O-])s1` [Compound 39], for which the pIC50 is, setting by setting: (read-out: IC50 H460 Air) 5.30; (read-out: IC50 H460 Anoxia) 6.70.

As to `C[C@@H](CCl)NP(=O)(N[C@@H](C)CCl)OCc1ccc([N+](=O)[O-])s1` [Compound 41], the pIC50 (read-out: IC50 H460 Air) was 5.15.

Consider `C[C@@H](CCl)NP(=O)(N[C@@H](C)CCl)OCc1ccc([N+](=O)[O-])o1` [Compound 42], for which the pIC50 under setting [1] is 5.05 and the pIC50 under setting [2] was 6.30.

With `CC(C)[C@H](CCl)NP(=O)(N[C@@H](CCl)C(C)C)OCc1ccc([N+](=O)[O-])o1` [Compound 43], the pIC50 runs as follows: under setting [1], 4.22; under setting [2], 5.70.

With `CC(C)[C@H](CCl)NP(=O)(N[C@@H](CCl)C(C)C)OCc1cnc([N+](=O)[O-])n1C` [Compound 45], the pIC50 runs as follows: under setting [1], under 4.00; under setting [2], 5.22.

Take `CC(C)[C@@H](CCl)NP(=O)(N[C@H](CCl)C(C)C)OCc1cnc([N+](=O)[O-])n1C` [Compound 48]: the pIC50 under setting [1] is under 4.00.

As to `CC(C)[C@H](CCl)NP(=O)(N[C@@H](CCl)C(C)C)OCc1ccc(OCc2cnc([N+](=O)[O-])n2C)c(F)c1` [Compound 49], for the setting “read-out: IC50 H460 Air”, the pIC50 was under 4.00.

Turning to `C[C@H](CCl)NP(=O)(N[C@H](C)CCl)OCc1ccc(-c2ccc([N+](=O)[O-])o2)cc1` [Compound 57], where the note is “read-out: IC50 H460 Anoxia”, the pIC50 is 4.85.

As for `O=[N+]([O-])c1ccc(C#Cc2ccc(COP(=O)(NCCBr)NCCBr)cc2)s1` [Compound 58], the pIC50 is 5.00 under setting [1] and 5.30 under setting [2].

For the compound `CC(OP(=O)(NCCBr)NCCBr)c1ccc(-c2ccc([N+](=O)[O-])s2)cc1` (stereo not drawn) [Compound 59], the pIC50 is, setting by setting: under setting [1], 5.22; under setting [2], 5.70.

As for `COc1cc(C(C)OP(=O)(NCCBr)NCCBr)ccc1OCc1cnc([N+](=O)[O-])n1C` (stereo not drawn) [Compound 60], the pIC50 reads like this: under setting [1], 4.82; under setting [2], 4.82.

On to `Cn1c([N+](=O)[O-])nc(Br)c1-c1ccc(COP(=O)(NCCBr)NCCBr)cc1` [Compound 65], for which the pIC50 was 4.12 under setting [3] and 4.60 under setting [4].

In the case of `Cn1c(COP(=O)(NCCOS(C)(=O)=O)NCCOS(C)(=O)=O)cnc1[N+](=O)[O-]` [Compound 67], the pIC50 runs as follows: under setting [1], under 4.00; under setting [2], 4.32.

For `Cn1c(COC(=O)NCCCOP(=O)(NCCBr)NCCBr)cnc1[N+](=O)[O-]` [Compound 68], the pIC50 is under 4.00 under setting [1] and at most 4.00 under setting [2].

As to `Cn1c(COC(=O)NCCCCOP(=O)(NCCBr)NCCBr)cnc1[N+](=O)[O-]` [Compound 69], the pIC50 under setting [1] was under 4.00 and the pIC50 under setting [2] was 4.15.

Consider `CC(OP(=O)(NCCBr)NCCBr)c1ccc(OCc2ccc([N+](=O)[O-])o2)c([N+](=O)[O-])c1` (stereo not drawn) [Compound 71], for which the negative logarithm of the IC50 (pIC50) under setting [1] was 7.00 and the pIC50 under setting [2] was 7.00.

On to `C[C@H](CBr)NP(=O)(N[C@H](C)CBr)OCc1ccc([N+](=O)[O-])o1` [Compound 72], for which the pIC50 is, setting by setting: under setting [1], 4.92; under setting [2], 6.30.

With `O=[N+]([O-])c1ccc(COP(=O)(NCCBr)NCCBr)cc1` [Compound 74], the pIC50 reads like this: under setting [1], under 4.00; under setting [2], under 4.00.

On to `O=[N+]([O-])c1ccc(COP(=O)(NCCBr)NCCBr)c([N+](=O)[O-])c1` [Compound 75], for which the pIC50 is 4.59 under setting [1] and 5.05 under setting [2].

As to `O=[N+]([O-])c1ncc(COP(=O)(NCCCl)NCCCl)n1C1CCCCC1` [Compound 76], the pIC50 is under 4.00 under setting [1] and 5.05 under setting [2].

For `O=[N+]([O-])c1ncc(COP(=O)(NCCBr)NCCBr)n1C1CCCCC1` [Compound 77], the pIC50 runs as follows: under setting [1], 5.26; under setting [2], 5.80.

As for `O=[N+]([O-])c1ccc(COP(=O)(NCCBr)NCCBr)cc1F` [Compound 79], the pIC50 was 5.46 under setting [1] and 5.46 under setting [2].

With `O=[N+]([O-])c1nccn1CCCOP(=O)(NCCBr)NCCBr` [Compound 80], the pIC50 by setting is: under setting [1], under 4.00; under setting [2], under 4.00.

For the compound `CCCn1c(COP(=O)(NCCCl)NCCCl)cnc1[N+](=O)[O-]` [Compound 83], the pIC50 runs as follows: under setting [1], under 4.00; under setting [2], 6.52.

As for `O=[N+]([O-])c1ccsc1COP(=O)(NCCBr)NCCBr` [Compound 86], the pIC50 is, setting by setting: under setting [3], 5.52; under setting [4], 5.85.

For the compound `CC(OP(=O)(NCCCl)NCCCl)c1ncc([N+](=O)[O-])n1C` (stereo not drawn) [Compound 87], the pIC50 was under 4.00 under setting [1] and 4.66 under setting [2].

Take `CC(OP(=O)(NCCCl)NCCCl)c1ccc([N+](=O)[O-])s1` (stereo not drawn) [Compound 89]: the pIC50 under setting [1] is 5.43 and the pIC50 under setting [2] is 6.48.

`O=[N+]([O-])c1ncc(COP(=O)(NCCBr)NCCBr)n1CC(F)(F)F` [Compound 90]: the pIC50 runs as follows: under setting [1], 5.47; under setting [2], 8.00.

For `Cn1c(CSCCOP(=O)(NCCBr)NCCBr)cnc1[N+](=O)[O-]` [Compound 91], the pIC50 under setting [1] is under 4.00.

For the compound `Cn1c(CSCCCCOP(=O)(NCCBr)NCCBr)cnc1[N+](=O)[O-]` [Compound 92], the pIC50 is under 4.00 under setting [1] and under 4.00 under setting [2].

As for `CC(OP(=O)(N[C@H](C)CCl)N[C@H](C)CCl)c1ccc([N+](=O)[O-])s1` (stereo partly drawn) [Compound 93], the pIC50 under setting [3] was 5.42 and the pIC50 under setting [4] is 7.00.

Regarding `O=[N+]([O-])c1sc(COP(=O)(NCCBr)NCCBr)cc1Br` [Compound 94], the pIC50 is, setting by setting: under setting [1], 5.70; under setting [2], 6.52.

Take `O=[N+]([O-])c1sc(COP(=O)(NCCCl)NCCCl)cc1Br` [Compound 95]: the pIC50 under setting [1] is 5.57.

With `N#Cc1cc(COP(=O)(NCCCl)NCCCl)sc1[N+](=O)[O-]` [Compound 96], the pIC50 is 7.00 under setting [3] and 7.00 under setting [4].

Regarding `CC(OP(=O)(NCCCl)NCCCl)c1ccc([N+](=O)[O-])o1` (stereo not drawn) [Compound 104], the pIC50 was 4.92 under setting [1] and 6.40 under setting [2].

`CC(OP(=O)(NCCBr)NCCBr)c1ccc([N+](=O)[O-])o1` (stereo not drawn) [Compound 105]: the pIC50 was 6.00 under setting [1] and over 7.00 under setting [2].

Regarding `O=[N+]([O-])c1ccc(COP(=O)(NCCOS(=O)(=O)c2ccc(Cl)cc2)NCCOS(=O)(=O)c2ccc(Cl)cc2)o1` [Compound 107], the pIC50 is 5.55 (Homo sapiens, NCI-H460, 2 h, read-out: IC50 H460 Air) and 7.22 (Homo sapiens, NCI-H460, 2 h, read-out: IC50 H460 Anoxia).

On to `O=[N+]([O-])c1ccc(-c2ccc(OP3(=O)N(CCBr)CCN3CCBr)cc2)s1` [Compound 111], for which the pIC50 reads like this: under setting [1], 4.00; under setting [2], 4.30.

With `Cn1c(COC(=O)NC(C)(C)COP2(=O)N(CCBr)CCN2CCBr)cnc1[N+](=O)[O-]` [Compound 112], the pIC50 was under 4.00 under setting [1] and 4.15 under setting [2].

Regarding `CC(C)(C#Cc1ccc([N+](=O)[O-])s1)COP(N)(=O)N(CCCl)CCCl` (stereo not drawn) [Compound 115], the pIC50 is 5.30 under setting [1] and 6.30 under setting [2].

Turning to `Cc1cc(C(C)OP(N)(=O)N(CCCl)CCCl)sc1[N+](=O)[O-]` (stereo not drawn) [Compound 116], the pIC50 was 4.82 under setting [1] and 6.30 under setting [2].

`CC(C)(C#Cc1ccc([N+](=O)[O-])cc1)OP(N)(=O)N(CCCl)CCCl` (stereo not drawn) [Compound 117]: the pIC50 under setting [1] was 4.15 and the pIC50 under setting [2] is 5.10.

With `O=[N+]([O-])c1ccc(COP(=O)(NCCCCCCCCNP(=O)(OCc2ccc([N+](=O)[O-])o2)N(CCCl)CCCl)N(CCCl)CCCl)o1` (stereo not drawn) [Compound 139], the negative logarithm of the IC50 (pIC50) is, setting by setting: under setting [1], 4.00; under setting [2], 4.80.

In the case of `O=[N+]([O-])c1ccc(COP(=O)(NCCOCCOCCNP(=O)(OCc2ccc([N+](=O)[O-])o2)N(CCCl)CCCl)N(CCCl)CCCl)o1` (stereo not drawn) [Compound 140], the pIC50 is 4.19 under setting [1] and 5.30 under setting [2].

`Cn1c([N+](=O)[O-])cnc1COc1ccc(COP(N)(=O)N(CCCl)CCCl)cc1` (stereo not drawn) [Compound 142]: the pIC50 reads like this: under setting [1], under 4.00; under setting [2], under 4.40.

Turning to `O=[N+]([O-])c1ccc(COP(=O)(N(CCCl)CCCl)N(CCCl)CCCl)o1` [Compound 143], the pIC50 under setting [1] was 5.46 and the pIC50 under setting [2] was 5.35.

On to `Cn1c(COP(=O)(OCc2cnc([N+](=O)[O-])n2C)N(CCCl)CCCl)cnc1[N+](=O)[O-]` [Compound 145], for which the pIC50 by setting is: under setting [1], under 4.00; under setting [2], under 4.00.

On to `Cn1c([N+](=O)[O-])cnc1/C=C/COP1(=O)N(CCCl)CCN1CCCl` [Compound 147], for which the pIC50 is under 4.00 under setting [1] and under 4.00 under setting [2].

Consider `CC(=O)NP(=O)(OCc1cnc([N+](=O)[O-])n1C)N(CCCl)CCCl` (stereo not drawn) [Compound 149], for which the pIC50 was under 4.00 under setting [1] and 4.30 under setting [2].

As for `CN(CCCl)P(=O)(OCc1ccc(OCc2cnc([N+](=O)[O-])n2C)c(F)c1)N(C)CCCl` [Compound 150], the negative-log IC50 (pIC50) under setting [1] is 4.68.

For the compound `COc1cc2c(=O)n(CCN(C)P(=O)(OCc3ccc([N+](=O)[O-])o3)N(CCCl)CCCl)c3c4cc5c(cc4ncc3c2cc1OC)OCO5` (stereo not drawn) [Compound 154], the pIC50 is 5.70 under setting [1] and 6.05 under setting [2].
